Where a name gives a salt, the structure may show the parent alone.

In test [1] the test system is BT474 [human breast carcinoma, overexpressing HER2 (ErbB2)]. As to the kind of experiment: In vitro tumor cell proliferation assay (Cell Titer-Glo luminescent cell viability), BT474 cells. The test is classed as cell-based. The settings on record: BT-474, 72 h, 72 hours of drug exposure, Cell Titer-Glo readout, read-out: IC50, anti-proliferative activity in BT474 cells.

The subject of test [2] is A431 cells [human epidermoid carcinoma, overexpressing HER1 (EGFR, ErbB1)]. Put plainly: In vitro tumor cell proliferation assay (Cell Titer-Glo luminescent cell viability), A431 cells. The test is classed as cell-based. Conditions: A-431, 72 h, 72 hours of drug exposure, Cell Titer-Glo readout, read-out: IC50, anti-proliferative activity in A431 cells. (Cellular ATP, detected with luciferase, serves as a proxy for viable cell number.)

Consider `OC[C@@H](O)[C@H](O)c1ccc2c(c1)sc1ncnc(Nc3ccc(OCc4cccc(F)c4)c(Cl)c3)c12` [Example 64, (1R,2R)-1-[4-({3-chloro-4-[(3-fluorobenzyl)oxy]phenyl}amino)[1]benzothieno[2,3-d]pyrimidin-7-yl]propane-1,2,3-triol], for which the IC50 was at most 0.5 µM in test [1] and at most 5 µM in test [2].
In the same order, the values of `O=C(O)CCc1ccc2c(c1)sc1ncnc(Nc3ccc(OCc4cccc(F)c4)c(Cl)c3)c12` [Example 65, 3-[4-({3-chloro-4-[(3-fluorobenzyl)oxy]phenyl}amino)[1]benzothieno[2,3-d]pyrimidin-7-yl]propanoic acid] are at most 5 µM and at most 50 µM.
For `CN1CCN(C(=O)CCc2ccc3c(c2)sc2ncnc(Nc4ccc(OCc5cccc(F)c5)c(Cl)c4)c23)CC1` [Example 66, N-{3-chloro-4-[(3-fluorobenzyl)oxy]phenyl}-7-[3-(4-methylpiperazin-1-yl)-3-oxopropyl][1]benzothieno[2,3-d]pyrimidin-4-amine] the same measures were at most 5 µM and at most 50 µM.
With `CCN1CCN(C(=O)CCc2ccc3c(c2)sc2ncnc(Nc4ccc(OCc5cccc(F)c5)c(Cl)c4)c23)CC1` [Example 67, N-{3-chloro-4-[(3-fluorobenzyl)oxy]phenyl}-7-[3-(4-ethylpiperazin-1-yl)-3-oxopropyl][1]benzothieno[2,3-d] pyrimidin-4-amine], the IC50 in test [1] is at most 5 µM; in test [2], at most 50 µM.
In the same order, the values of `CN(C)[C@H]1CCN(C(=O)CCc2ccc3c(c2)sc2ncnc(Nc4ccc(OCc5cccc(F)c5)c(Cl)c4)c23)C1` [Example 68, N-{3-chloro-4-[(3-fluorobenzyl)oxy]phenyl}-7-{3-[(3S)-3-(dimethylamino)pyrrolidin-1-yl]-3-oxopropyl} [1]benzothieno[2,3-d]pyrimidin-4-amine] are at most 5 µM and at most 5 µM.
Consider `CS(=O)(=O)CCNC(=O)CCc1ccc2c(c1)sc1ncnc(Nc3ccc(OCc4cccc(F)c4)c(Cl)c3)c12` [Example 69, 3-[4-({3-chloro-4-[(3-fluorobenzyl)oxy]phenyl}amino)[1]benzothieno[2,3-d]pyrimidin-7-yl]-N-[2-(methylsulfonyl)ethyl] propanamide], for which the IC50 in test [1] is at most 0.5 µM; in test [2], at most 5 µM.
With `CN(C)CCNC(=O)CCc1ccc2c(c1)sc1ncnc(Nc3ccc(OCc4cccc(F)c4)c(Cl)c3)c12` [Example 70, 3-[4-({3-chloro-4-[(3-fluorobenzyl)oxy]phenyl}amino)[1]benzothieno[2,3-d]pyrimidin-7-yl]-N-[2-(dimethylamino)ethyl] propanamide], the IC50 in test [1] and in test [2] was at most 5 µM throughout.
Take `Clc1cc(Nc2ncnc3sc4cc(Br)ccc4c23)ccc1OCc1ccccn1` [Example 71, 7-bromo-N-[3-chloro-4-(pyridin-2-ylmethoxy)phenyl][1]benzothieno[2,3-d]pyrimidin-4-amine]: the figures for the IC50 in test [1] and in test [2] were at most 5 µM and at most 50 µM, respectively.
With `C=Cc1ccc2c(c1)sc1ncnc(Nc3ccc(OCc4ccccn4)c(Cl)c3)c12` [Example 72, N-[3-chloro-4-(pyridin-2-ylmethoxy)phenyl]-7-vinyl[1]benzothieno[2,3-d]pyrimidin-4-amine], the half-maximal inhibitory concentration (IC50) is at most 5 µM in test [1] and at most 50 µM in test [2].
In the same order, the values of `OC[C@@H](O)c1ccc2c(c1)sc1ncnc(Nc3ccc(OCc4ccccn4)c(Cl)c3)c12` [Example 74, (1S)-1-(4-{[3-chloro-4-(pyridin-2-ylmethoxy)phenyl]amino}[1]benzothieno[2,3-d]pyrimidin-7-yl)ethane-1,2-diol] are at most 0.5 µM and at most 50 µM.
In the same order, the values of `OC[C@H](O)c1ccc2c(c1)sc1ncnc(Nc3ccc(OCc4ccccn4)c(Cl)c3)c12` [Example 75, (1R)-1-(4-{[3-chloro-4-(pyridin-2-ylmethoxy)phenyl]amino}[1]benzothieno[2,3-d]pyrimidin-7-yl)ethane-1,2-diol] are at most 0.5 µM and at most 50 µM.
In the case of `Clc1cc(Nc2ncnc3sc4cc(N5CCOCC5)ccc4c23)ccc1OCc1ccccn1` [Example 76, N-[3-chloro-4-(pyridin-2-ylmethoxy)phenyl]-7-morpholin-4-yl[1]benzothieno[2,3-d]pyrimidin-4-amine trifluoroacetate], the IC50 in test [1] is at most 0.5 µM; in test [2], at most 50 µM.
For `CN1CCN(c2ccc3c(c2)sc2ncnc(Nc4ccc(OCc5ccccn5)c(Cl)c4)c23)CC1` [Example 77, N-[3-chloro-4-(pyridin-2-ylmethoxy)phenyl]-7-(4-methylpiperazin-1-yl)[1]benzothieno [2,3-d]pyrimidin-4-amine trifluoroacetate] the same measures were at most 0.5 µM and at most 5 µM.
With `Clc1cc(Nc2ncnc3sc4cc(NCCN5CCOCC5)ccc4c23)ccc1OCc1ccccn1` [Example 78, N4-[3-chloro-4-(pyridin-2-ylmethoxy)phenyl]-N7-(2-morpholin-4-ylethyl)[1] benzothieno[2,3-d]pyrimidine-4,7-diamine trifluoroacetate], the figures for the 50% inhibitory concentration (IC50) in test [1] and in test [2] were at most 5 µM and at most 50 µM, respectively.
For `COCCCNc1ccc2c(c1)sc1ncnc(Nc3ccc(OCc4ccccn4)c(Cl)c3)c12` [Example 79, N4-[3-chloro-4-(pyridin-2-ylmethoxy)phenyl]-N7-(3-methoxypropyl)[1]benzothieno [2,3-d]pyrimidine-4,7-diamine trifluoroacetate] the same measures were at most 5 µM and at most 50 µM.
In the same order, the values of `CCOC(=O)Cc1ccc2c(c1)sc1ncnc(Nc3ccc(OCc4ccccn4)c(Cl)c3)c12` [Example 81, ethyl {4-[3-Chloro-4-(pyridin-2-ylmethoxy)-phenylamino]-benzo [4,5]thieno[2,3-d]pyrimidin-7-yl}-acetate trifluoroacetate] are at most 5 µM and at most 50 µM.
With `OCCc1ccc2c(c1)sc1ncnc(Nc3ccc(OCc4ccccn4)c(Cl)c3)c12` [Example 82, 2-(4-{[3-chloro-4-(pyridin-2-ylmethoxy)phenyl]amino}[1]benzothieno[2,3-d]pyrimidin-7-yl) ethanol], the IC50 in test [1] is at most 0.5 µM; in test [2], at most 5 µM.
Turning to `Clc1cc(Nc2ncnc3sc4cc(CCBr)ccc4c23)ccc1OCc1ccccn1` [Example 83, 7-(2-bromoethyl)-N-[3-chloro-4-(pyridin-2-ylmethoxy)phenyl][1] benzothieno[2,3-d]pyrimidin-4-amine], the IC50 in test [1] is at most 0.5 µM; in test [2], at most 5 µM.
For `Clc1cc(Nc2ncnc3sc4cc(CCN5CCOCC5)ccc4c23)ccc1OCc1ccccn1` [Example 84, N-[3-chloro-4-(pyridin-2-ylmethoxy)phenyl]-7-(2-morpholin-4-ylethyl)[1]benzothieno[2,3-d] pyrimidin-4-amine] the same measures were at most 0.5 µM and at most 50 µM.
For `CS(=O)(=O)CCNCCc1ccc2c(c1)sc1ncnc(Nc3ccc(OCc4ccccn4)c(Cl)c3)c12` [Example 85, N-[3-chloro-4-(pyridin-2-ylmethoxy)phenyl]-7-(2-{[2-(methylsulfonyl)ethyl]amino}ethyl) [1]benzothieno[2,3-d]pyrimidin-4-amine trifluoroacetate] the same measures were at most 0.5 µM and at most 5 µM.

A word on the IC50: it is the point on the concentration scale where inhibition reaches its midpoint.
